Assay results: ChEMBL document CHEMBL1136116 (Bioorg Med Chem Lett, 2003)

What was measured:
[1] = target: Cyclin-dependent kinase 4/cyclin D (Homo sapiens, UniProt P11802); assay: Inhibition of CDK4-Cyclin D; type: protein-complex assay
[2] = target: Cyclin-dependent kinase 1/cyclin B (Homo sapiens, UniProt P06493); assay: Inhibition of Cyclin-dependent kinase 1-cyclin B; type: protein-complex assay
[3] = target: Cyclin-dependent kinase 2/cyclin E (Homo sapiens, UniProt P24941); assay: Inhibitory activity against Cyclin-dependent kinase 2-cyclin E; type: protein-complex assay
A2780 = assay: Cytotoxic effect on ovarian cancer cell line (A2780); type: functional, cell-based; conditions: Homo sapiens

| SMILES | IC50 [1] [nM] | IC50 [2] [nM] | IC50 [3] [nM] | IC50 (A2780) [nM] |
| --- | --- | --- | --- | --- |
| CCCCOc1c(C(=O)Nc2ccccc2)cnc2[nH]ncc12 |  |  | 19000 |  |
| CCCCOc1c(C(=O)c2ccccc2C)cnc2[nH]ncc12 |  | 410 | 730 |  |
| CCCCOc1c(C(=O)c2cccc(C)c2)cnc2[nH]ncc12 |  |  | 660 |  |
| CCCCOc1c(C(=O)Cc2ccccc2)cnc2[nH]ncc12 |  |  | > 1000 |  |
| CCCCOc1c(S(=O)(=O)c2ccccc2)cnc2[nH]ncc12 |  |  | 520 |  |
| CCCCOc1c(C(=O)c2c(C)cc(C)cc2C)cnc2[nH]ncc12 |  |  | > 1000 |  |
| CCCCOc1c(C(=O)c2nccs2)cnc2[nH]ncc12 |  | 450 | 210 |  |
| CCCCOc1c([S+]([O-])c2ccccc2)cnc2[nH]ncc12 (stereo not given) |  |  | 340 |  |
| CCCCOc1c(C(=O)C2CC2)cnc2[nH]ncc12 |  |  | 2700 |  |
| CCCCOc1c(C(=O)NCC)cnc2[nH]ncc12 |  |  | 8100 |  |
| CCCCOc1c(C(=O)c2ccccc2)cnc2[nH]ncc12 [SQ-67563] | > 25000 |  |  |  |
| CCCCOc1c(C(=O)OC)cnc2[nH]ncc12 |  |  | > 10000 |  |
| CCCCOc1c(C(=O)c2cccs2)cnc2[nH]ncc12 |  | 230 | 200 |  |
| CCCCOc1c(C(=O)c2cccnc2)cnc2[nH]ncc12 |  |  | 2400 |  |
| CCCCOc1c(C(C)=O)cnc2[nH]ncc12 |  |  | > 1000 |  |
| CCCCOc1c(C(=O)c2ccc(C)cc2)cnc2[nH]ncc12 |  |  | 210 |  |

Further compounds by falling IC50 [3], results first:

| IC50 [1] [nM] | IC50 [2] [nM] | IC50 [3] [nM] | SMILES | IC50 (A2780) [nM] |
| --- | --- | --- | --- | --- |
|  | 280 | 180 | CCCCOc1c(C(=O)c2ccco2)cnc2[nH]ncc12 |  |
| 21000 | 32 | 64 | CCCCOc1c(C(=O)c2c(F)cccc2F)cnc2[nH]ncc12 |  |
| 24000 | 360 | 36 | CCCCOc1c(C(=O)c2ccccc2F)cnc2[nH]ncc12 |  |
| 310 | 13 | 27 | CCCCOc1c(C(=O)c2c(F)cc(Cl)cc2F)cnc2[nH]ncc12 |  |
| 230 | 7 | 22 | CCCCOc1c(C(=O)c2c(F)cc(OC)cc2F)cnc2[nH]ncc12 |  |
| 370 | 17 | 20 | CCCCOc1c(C(=O)c2c(F)cc(Br)cc2F)cnc2[nH]ncc12 |  |
| 230 | 6 | 9 | CCCCOc1c(C(=O)c2c(F)cc(C)cc2F)c[nH]c2nncc1-2 | 760 |
